Activity calls are given as the source filed them. The calls are words filed in the database; no cut-off is given here.
How the values were obtained:
[1] = molecular target: Megakaryocyte-associated tyrosine-protein kinase (Homo sapiens) (UniProt P42679); assay: Inhibition of human MATK at 1 uM using poly (Glu, Tyr)4:1 as substrate in presence of [gamma33P]-ATP by HotSpot assay relative to control
[2] = molecular target: Vascular endothelial growth factor receptor 2 (Homo sapiens, UniProt P35968); assay: Inhibition of human VEGFR2 using poly (Glu, Tyr)4:1 as substrate in presence of [gamma33P]-ATP by HotSpot assay
[3] = molecular target: Misshapen-like kinase 1 (Homo sapiens) (UniProt Q8N4C8); assay: Inhibition of human MINK1 at 1 uM using MBP as substrate in presence of [gamma33P]-ATP by HotSpot assay relative to control
[4] = molecular target: Beta-adrenergic receptor kinase 1 (Homo sapiens) (UniProt P25098); assay: Inhibition of human ADRBK1 at 1 uM using casein as substrate in presence of [gamma33P]-ATP by HotSpot assay relative to control
[5] = molecular target: Myosin light chain kinase 2, skeletal/cardiac muscle (Homo sapiens) (UniProt Q9H1R3); assay: Inhibition of human MYLK2 at 1 uM using KKLNRTLSFAEPG as substrate in presence of [gamma33P]-ATP by HotSpot assay relative to control
[6] = molecular target: Tyrosine-protein kinase CSK (Homo sapiens, UniProt P41240); assay: Inhibition of human CSK at 1 uM using poly (Glu, Tyr)4:1 as substrate in presence of [gamma33P]-ATP by HotSpot assay relative to control
[7] = molecular target: Dual specificity protein kinase CLK1 (Homo sapiens, UniProt P49759); assay: Inhibition of human CLK1 using MBP as substrate in presence of [gamma33P]-ATP by HotSpot assay
KARPAS-299 = assay: Inhibition of ERK phosphorylation in ALK-positive human KARPAS-299 cells at 1 to 1000 nM incubated for 1 hrs by immunoblot analysis; type: cell-based; settings: dose 1-1000 nM
[8] = molecular target: Protein kinase C beta type (Homo sapiens) (UniProt P05771); assay: Inhibition of human PRKCB at 1 uM using ERMRPRKRQGSVRRRV as substrate in presence of [gamma33P]-ATP by HotSpot assay relative to control
[9] = molecular target: Serine/threonine-protein kinase 26 (Homo sapiens) (UniProt Q9P289); assay: Inhibition of human STK26 at 1 uM using MBP as substrate in presence of [gamma33P]-ATP by HotSpot assay relative to control
[10] = molecular target: Inhibitor of nuclear factor kappa-B kinase subunit beta (Homo sapiens) (UniProt O14920); assay: Inhibition of human IKBKB at 1 uM using KKKKERLLDDRHDSGLDSMKDEE as substrate in presence of [gamma33P]-ATP by HotSpot assay relative to control
[11] = molecular target: Serine/threonine-protein kinase PAK 5 (Homo sapiens) (UniProt Q9P286); assay: Inhibition of human PAK5 at 1 uM using RRRLSFAEPG as substrate in presence of [gamma33P]-ATP by HotSpot assay relative to control
[12] = tested on: EML4-ALK (Homo sapiens), Q9UM73+Q9HC35 [L1152P]; settings: BaF3, dose 500.0 nmol/L, time 3-5 weeks
[13] = molecular target: Tyrosine-protein kinase JAK1 (Homo sapiens) (UniProt P23458); assay: Inhibition of human JAK1 at 1 uM using MBP as substrate in presence of [gamma33P]-ATP by HotSpot assay relative to control
[14] = molecular target: Non-receptor tyrosine-protein kinase TYK2 (Homo sapiens) (UniProt P29597); assay: Inhibition of human TYK2 at 1 uM using KKSRGDYMTMQIG as substrate in presence of [gamma33P]-ATP by HotSpot assay relative to control
[15] = molecular target: Muscle, skeletal receptor tyrosine-protein kinase (Homo sapiens) (UniProt O15146); assay: Inhibition of human MUSK at 1 uM using MBP as substrate in presence of [gamma33P]-ATP by HotSpot assay relative to control
[16] = molecular target: Ephrin type-B receptor 2 (Homo sapiens) (UniProt P29323); assay: Inhibition of human EPHB2 at 1 uM using poly (Glu, Tyr)4:1 as substrate in presence of [gamma33P]-ATP by HotSpot assay relative to control
cells = settings: Homo sapiens, BaF3, 72 h
[17] = molecular target: BDNF/NT-3 growth factors receptor (Homo sapiens, UniProt Q16620); assay: Inhibition of human NTRK2 using poly (Glu, Tyr)4:1 as substrate in presence of [gamma33P]-ATP by HotSpot assay
[18] = molecular target: RAC-beta serine/threonine-protein kinase (Homo sapiens) (UniProt P31751); assay: Inhibition of human AKT2 at 1 uM using KGSGSGRPRTSSFAEG as substrate in presence of [gamma33P]-ATP by HotSpot assay relative to control
[19] = molecular target: cGMP-dependent protein kinase 1 (Homo sapiens, UniProt Q13976); assay: Inhibition of human PRKG1 using LRRASLG as substrate in presence of [gamma33P]-ATP by HotSpot assay
[20] = molecular target: Tyrosine-protein kinase ABL2 (Homo sapiens) (UniProt P42684); assay: Inhibition of human ABL2 at 1 uM using EAIYAAPFAKKK as substrate in presence of [gamma33P]-ATP by HotSpot assay relative to control
[21] = tested on: EML4-ALK (Homo sapiens), Q9UM73+Q9HC35 [E1210K]; settings: BaF3, dose 200.0 nmol/L, time 3-5 weeks
[22] = molecular target: Tyrosine-protein kinase ITK/TSK (Homo sapiens) (UniProt Q08881); assay: Inhibition of human ITK at 1 uM using MBP as substrate in presence of [gamma33P]-ATP by HotSpot assay relative to control
[23] = molecular target: Serine/threonine-protein kinase SIK2 (Homo sapiens, UniProt Q9H0K1); assay: Inhibition of human SIK2 using AMARAASAAALARRR as substrate in presence of [gamma33P]-ATP by HotSpot assay
[24] = molecular target: Mitogen-activated protein kinase 3 (Homo sapiens) (UniProt P27361); assay: Inhibition of human MAPK3 at 1 uM using MBP as substrate in presence of [gamma33P]-ATP by HotSpot assay relative to control
[25] = molecular target: Serine/threonine-protein kinase TAO3 (Homo sapiens) (UniProt Q9H2K8); assay: Inhibition of human TAOK3 at 1 uM using MBP as substrate in presence of [gamma33P]-ATP by HotSpot assay relative to control
NCI-H838 = settings: time 72 hrs
in vitro = settings: mouse, BaF3 cells
[26] = tested on: EML4-ALK (Homo sapiens), Q9UM73+Q9HC35 [E1210K]; settings: BaF3, time 3-5 weeks

Chain of Tyrosine-protein kinase ABL2 (Homo sapiens) (P42684 whole entry): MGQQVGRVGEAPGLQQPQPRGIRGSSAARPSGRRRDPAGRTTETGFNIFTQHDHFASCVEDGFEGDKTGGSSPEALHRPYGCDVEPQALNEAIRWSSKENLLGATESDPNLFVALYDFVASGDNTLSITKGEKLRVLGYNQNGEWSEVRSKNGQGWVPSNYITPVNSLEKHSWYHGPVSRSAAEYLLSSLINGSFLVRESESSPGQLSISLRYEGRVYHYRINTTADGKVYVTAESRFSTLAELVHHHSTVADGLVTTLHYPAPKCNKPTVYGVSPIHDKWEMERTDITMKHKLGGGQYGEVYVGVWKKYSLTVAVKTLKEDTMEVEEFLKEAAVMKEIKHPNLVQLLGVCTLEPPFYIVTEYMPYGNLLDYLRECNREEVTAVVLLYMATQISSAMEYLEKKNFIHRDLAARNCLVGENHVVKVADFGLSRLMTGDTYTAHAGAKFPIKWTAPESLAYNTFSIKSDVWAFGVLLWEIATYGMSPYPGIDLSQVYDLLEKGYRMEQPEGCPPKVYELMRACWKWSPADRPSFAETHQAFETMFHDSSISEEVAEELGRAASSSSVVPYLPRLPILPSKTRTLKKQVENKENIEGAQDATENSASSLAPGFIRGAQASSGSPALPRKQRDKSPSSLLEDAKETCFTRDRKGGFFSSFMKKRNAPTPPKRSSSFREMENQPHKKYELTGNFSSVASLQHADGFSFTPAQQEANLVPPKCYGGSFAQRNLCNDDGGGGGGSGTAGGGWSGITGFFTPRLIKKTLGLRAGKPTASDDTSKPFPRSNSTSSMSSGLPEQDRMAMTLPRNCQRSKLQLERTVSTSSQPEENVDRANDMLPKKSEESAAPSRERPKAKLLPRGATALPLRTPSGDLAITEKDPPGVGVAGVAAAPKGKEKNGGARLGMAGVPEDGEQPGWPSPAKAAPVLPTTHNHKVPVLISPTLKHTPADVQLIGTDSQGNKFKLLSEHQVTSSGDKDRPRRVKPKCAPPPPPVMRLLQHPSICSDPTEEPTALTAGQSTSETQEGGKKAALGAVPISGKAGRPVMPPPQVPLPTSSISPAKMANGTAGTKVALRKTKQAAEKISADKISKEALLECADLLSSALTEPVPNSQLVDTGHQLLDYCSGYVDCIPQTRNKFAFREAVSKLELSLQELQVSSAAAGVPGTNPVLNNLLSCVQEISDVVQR
Chain of Vascular endothelial growth factor receptor 2 (P35968 whole entry): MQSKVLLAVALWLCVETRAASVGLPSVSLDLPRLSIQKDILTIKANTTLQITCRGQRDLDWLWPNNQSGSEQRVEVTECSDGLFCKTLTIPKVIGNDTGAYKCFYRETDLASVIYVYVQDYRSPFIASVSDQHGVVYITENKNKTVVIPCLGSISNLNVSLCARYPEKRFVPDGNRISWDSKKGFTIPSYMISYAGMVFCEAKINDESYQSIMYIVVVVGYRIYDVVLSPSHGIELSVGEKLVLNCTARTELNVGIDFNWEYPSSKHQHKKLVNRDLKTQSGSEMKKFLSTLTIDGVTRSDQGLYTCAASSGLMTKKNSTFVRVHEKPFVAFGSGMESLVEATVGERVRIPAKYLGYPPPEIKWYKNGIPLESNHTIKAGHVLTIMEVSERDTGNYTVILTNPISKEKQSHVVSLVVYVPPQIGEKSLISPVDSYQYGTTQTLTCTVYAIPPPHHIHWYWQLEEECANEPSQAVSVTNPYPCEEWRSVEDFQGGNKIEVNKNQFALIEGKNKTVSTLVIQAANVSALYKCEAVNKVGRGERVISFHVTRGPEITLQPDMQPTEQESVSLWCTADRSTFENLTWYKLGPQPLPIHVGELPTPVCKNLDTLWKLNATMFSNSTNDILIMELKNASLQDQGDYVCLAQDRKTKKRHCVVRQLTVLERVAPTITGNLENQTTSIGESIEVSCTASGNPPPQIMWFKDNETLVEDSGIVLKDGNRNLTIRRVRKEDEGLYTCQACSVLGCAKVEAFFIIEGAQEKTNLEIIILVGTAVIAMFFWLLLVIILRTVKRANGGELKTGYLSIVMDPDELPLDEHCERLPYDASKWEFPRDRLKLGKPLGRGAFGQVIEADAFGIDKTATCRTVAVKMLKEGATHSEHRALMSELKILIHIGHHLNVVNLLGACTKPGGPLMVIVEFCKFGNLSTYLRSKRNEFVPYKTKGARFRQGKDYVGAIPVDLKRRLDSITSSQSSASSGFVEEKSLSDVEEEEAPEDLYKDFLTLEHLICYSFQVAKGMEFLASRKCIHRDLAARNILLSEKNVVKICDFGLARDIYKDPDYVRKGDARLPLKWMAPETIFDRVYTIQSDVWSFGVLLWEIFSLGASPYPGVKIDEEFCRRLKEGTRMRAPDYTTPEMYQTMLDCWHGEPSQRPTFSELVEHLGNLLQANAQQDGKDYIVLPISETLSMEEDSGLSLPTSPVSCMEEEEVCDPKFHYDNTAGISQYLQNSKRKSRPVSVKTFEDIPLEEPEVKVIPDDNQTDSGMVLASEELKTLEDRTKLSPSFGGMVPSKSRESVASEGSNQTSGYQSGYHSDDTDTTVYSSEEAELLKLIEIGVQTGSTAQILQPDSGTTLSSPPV
Chain of cGMP-dependent protein kinase 1 (Q13976 whole entry): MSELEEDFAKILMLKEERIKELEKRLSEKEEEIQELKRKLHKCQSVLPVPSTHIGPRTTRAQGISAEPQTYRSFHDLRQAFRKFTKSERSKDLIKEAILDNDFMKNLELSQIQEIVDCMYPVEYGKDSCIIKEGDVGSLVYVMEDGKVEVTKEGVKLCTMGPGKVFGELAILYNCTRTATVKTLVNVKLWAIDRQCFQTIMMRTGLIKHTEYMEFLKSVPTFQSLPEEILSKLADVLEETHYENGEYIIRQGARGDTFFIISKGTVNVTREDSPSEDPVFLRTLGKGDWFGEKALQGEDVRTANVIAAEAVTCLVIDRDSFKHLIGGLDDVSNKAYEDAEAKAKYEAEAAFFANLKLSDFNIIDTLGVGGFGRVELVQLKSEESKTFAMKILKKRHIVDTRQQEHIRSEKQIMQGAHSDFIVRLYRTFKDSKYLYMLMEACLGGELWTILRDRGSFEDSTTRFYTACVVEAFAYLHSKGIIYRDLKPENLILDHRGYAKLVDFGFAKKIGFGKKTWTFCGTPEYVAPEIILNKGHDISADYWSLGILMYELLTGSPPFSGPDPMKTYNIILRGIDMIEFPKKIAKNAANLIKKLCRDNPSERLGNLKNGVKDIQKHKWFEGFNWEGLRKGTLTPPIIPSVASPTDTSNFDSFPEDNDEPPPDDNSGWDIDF
Chain of Muscle, skeletal receptor tyrosine-protein kinase (Homo sapiens) (O15146 whole entry): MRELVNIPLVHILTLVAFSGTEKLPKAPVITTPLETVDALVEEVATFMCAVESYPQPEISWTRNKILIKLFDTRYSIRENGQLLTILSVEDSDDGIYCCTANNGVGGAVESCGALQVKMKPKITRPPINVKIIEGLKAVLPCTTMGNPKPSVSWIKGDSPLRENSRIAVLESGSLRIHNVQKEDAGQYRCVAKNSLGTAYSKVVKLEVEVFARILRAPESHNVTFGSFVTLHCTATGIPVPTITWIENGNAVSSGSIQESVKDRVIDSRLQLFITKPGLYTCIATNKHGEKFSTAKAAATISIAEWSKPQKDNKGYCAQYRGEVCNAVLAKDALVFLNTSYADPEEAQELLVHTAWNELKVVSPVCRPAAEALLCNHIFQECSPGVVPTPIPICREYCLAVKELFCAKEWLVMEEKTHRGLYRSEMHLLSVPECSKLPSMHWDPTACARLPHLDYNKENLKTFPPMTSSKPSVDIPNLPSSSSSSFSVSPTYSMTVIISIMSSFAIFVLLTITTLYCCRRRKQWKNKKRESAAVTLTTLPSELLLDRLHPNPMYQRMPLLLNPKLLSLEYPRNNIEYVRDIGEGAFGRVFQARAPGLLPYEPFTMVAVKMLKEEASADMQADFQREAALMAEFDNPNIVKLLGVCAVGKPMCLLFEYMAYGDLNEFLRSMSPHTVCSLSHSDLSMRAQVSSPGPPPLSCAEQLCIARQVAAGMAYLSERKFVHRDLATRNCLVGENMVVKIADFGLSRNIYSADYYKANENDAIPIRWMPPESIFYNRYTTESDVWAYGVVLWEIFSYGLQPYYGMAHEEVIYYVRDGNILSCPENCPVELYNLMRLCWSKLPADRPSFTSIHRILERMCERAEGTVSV
Chain of Serine/threonine-protein kinase TAO3 (Homo sapiens) (Q9H2K8 whole entry): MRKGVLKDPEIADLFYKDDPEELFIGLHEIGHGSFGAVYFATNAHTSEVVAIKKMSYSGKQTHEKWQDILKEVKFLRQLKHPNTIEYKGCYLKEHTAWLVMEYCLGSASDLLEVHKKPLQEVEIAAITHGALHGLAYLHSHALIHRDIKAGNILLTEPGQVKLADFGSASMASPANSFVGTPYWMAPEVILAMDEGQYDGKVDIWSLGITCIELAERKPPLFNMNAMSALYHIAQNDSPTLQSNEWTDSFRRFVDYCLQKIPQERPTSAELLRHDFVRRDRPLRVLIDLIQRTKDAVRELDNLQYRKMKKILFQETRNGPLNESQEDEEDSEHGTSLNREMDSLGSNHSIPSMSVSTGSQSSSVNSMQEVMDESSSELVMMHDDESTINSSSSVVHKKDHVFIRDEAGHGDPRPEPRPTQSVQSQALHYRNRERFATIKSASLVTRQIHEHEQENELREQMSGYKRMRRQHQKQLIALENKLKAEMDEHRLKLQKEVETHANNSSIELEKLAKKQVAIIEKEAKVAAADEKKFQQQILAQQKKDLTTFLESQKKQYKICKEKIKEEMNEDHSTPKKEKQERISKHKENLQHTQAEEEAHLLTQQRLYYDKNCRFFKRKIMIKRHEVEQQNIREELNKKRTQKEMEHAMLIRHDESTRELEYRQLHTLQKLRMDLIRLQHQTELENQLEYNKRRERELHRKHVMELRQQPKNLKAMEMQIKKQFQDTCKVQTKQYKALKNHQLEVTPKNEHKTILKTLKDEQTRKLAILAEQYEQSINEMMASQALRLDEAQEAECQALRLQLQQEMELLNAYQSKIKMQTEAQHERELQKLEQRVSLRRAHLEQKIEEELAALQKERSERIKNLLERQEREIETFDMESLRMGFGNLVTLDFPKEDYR

Which results are given for COc1cc(N2CCC(N3CCN(C)CC3)CC2)ccc1Nc1ncc(Cl)c(Nc2ccccc2P(C)(C)=O)n1 [BRIGATINIB]?
inhibition [1]: < 90%; IC50 [2]: 816 nM; inhibition [3]: < 90%; inhibition [4]: < 90%; inhibition [5]: < 90%; inhibition [6]: < 90%; IC50 [7]: 23 nM; inhibition (KARPAS-299): Active; inhibition [8]: < 90%; inhibition [9]: < 90%; inhibition [10]: < 90%; inhibition [11]: < 90%; inhibition [12]: Active; inhibition [13]: < 90%; inhibition [14]: < 90%; inhibition [15]: < 90%; inhibition [16]: < 90%; IC50 (cells): 31 nM; IC50 [17]: > 1000 nM; inhibition [18]: < 90%; IC50 [19]: > 1000 nM; inhibition [20]: < 90%; inhibition [21]: inactive; inhibition [22]: < 90%; IC50 [23]: 466 nM; inhibition [24]: < 90%; inhibition [25]: < 90%; GI50 (NCI-H838): 503 nM; IC50 (in vitro): 3210 nM; IC90 (in vitro): 9500 nM; IC90 [26]: 366 nM

— ChEMBL document CHEMBL5696443 (Clin Cancer Res, 2016)
